Experimental findings from article PMC9181543, “Lysosomal Exocytosis of Olivacine on the Way to Explain Drug Resistance in Cancer Cells” (International Journal of Molecular Sciences, 2022) are described below.

In data set [1] the test system is A549 cells. The data set can be described thus: Proton pump blocking test (omeprazole) for lysosomal exocytosis. Format: cell-based, human. To be noted: for intracellular localisation: LysoTracker staining. As to the method: To assess whether the exocytosis of olivacine and ellipticine from cancer cells is lysosomal, a proton pump blocking test was performed. Omeprazole was added into A549 cells at a concentration of 200 µM for 1 h. The cell culture was then washed twice with PBS, and the cells were treated with tested compounds. The cell culture was assessed using an Evos FL microscope. The lysosomes were stained using LysoTracker™ Deep Red kit (L12492; Invitrogen). Cultured cells were evaluated using an Evos FL microscope, taking photos every 15 min. After treatment with olivacine or olivacine and omeprazole, analysis of mean cell fluorescence was performed from five independent replicates. In addition, 14 pictures were taken from each replicate, and 100 cells were analyzed by photomicrography using the ImageJ platform.

The subject of data set [2] is LoVo/DX cells. Briefly: SRB assay (total protein content), LoVo/DX. The class given is cell-based. To be noted: Homo sapiens, LoVo/DX cells (doxorubicin-resistant), 48 h incubation. As to the method:
(§1) The anticancer activity of tested compounds was assessed on five human cell lines selected from the panel of tumor cell lines recommended by the National Cancer Institute: A495 (lung carcinoma), CCRF/CEM (acute lymphoblastic leukemia), LoVo and LoVo/DX (two types of colorectal: non-resistant and resistant to doxorubicin), and MCF-7 (breast adenocarcinoma). In addition, the NHDF cell line (normal human dermal fibroblasts) was used to estimate cytotoxicity to noncancer cells. The A549, CCRF/CEM, LoVo, LoVo/DX, and MCF-7 cells were obtained from ECACC, and NHDF cells from LONZA, Belgium. The A549 and MCF-7 cells were grown in EMEM medium, CCRF/CEM cells in RPMI-1640, LoVo and LoVo/DX cells in DMEM/F-12, and NHDF cells in DMEM without phenol red. The cells were seeded in […] in the biological assay, as recommended by the National Cancer Institute. All culture media were supplemented with L-glutamine, penicillin, streptomycin, and 10% fetal bovine serum (FBS). Cells were incubated at 37 °C and 5% CO2. One of the most popular in vitro tests to evaluate the activity of compounds with potential antitumor activity is the SRB assay. The sulforhodamine B dye is used, which binds to the protein at the appropriate pH. The assay allows for assessing cell mass and, indirectly, their proliferation. The advantage of the assay is that it measures cellular protein content and not the activity of any enzymes. The SRB assay was carried out according to the National Cancer Institute procedure. Cells were incubated in a culture medium for 24 h in 96-well plates. After 24 h, the control plate for each cell line was fixed with TCA to evaluate cell culture before treatment with tested compounds. […] Cell cultures were then fixed by adding 50% TCA at 4 °C for 1 h. After removing the supernatant, the plates were washed with water and dried. […] Growth inhibition was calculated following the NCI guidelines and expressed as the GI50 ratio, i.e., the concentration of the compound in which the amount of protein was reduced by half compared with the control.

Data set [3] has as its system LoVo cells. The data set can be described thus: SRB assay (total protein content), LoVo. Format: cell-based. The conditions noted are these: Homo sapiens, 48 h incubation. As to the method:
as §1

The test system of data set [4] is A549 cells. The data set can be described thus: MTT assay (mitochondrial activity), A549. Format: cell-based. To be noted: Homo sapiens. As to the method:
(§2) The anticancer activity of tested compounds was assessed on five human cell lines selected from the panel of tumor cell lines recommended by the National Cancer Institute: A495 (lung carcinoma), CCRF/CEM (acute lymphoblastic leukemia), LoVo and LoVo/DX (two types of colorectal: non-resistant and resistant to doxorubicin), and MCF-7 (breast adenocarcinoma). In addition, the NHDF cell line (normal human dermal fibroblasts) was used to estimate cytotoxicity to noncancer cells. The A549, CCRF/CEM, LoVo, LoVo/DX, and MCF-7 cells were obtained from ECACC, and NHDF cells from LONZA, Belgium. The A549 and MCF-7 cells were grown in EMEM medium, CCRF/CEM cells in RPMI-1640, LoVo and LoVo/DX cells in DMEM/F-12, and NHDF cells in DMEM without phenol red. The cells were seeded in […] in the biological assay, as recommended by the National Cancer Institute. All culture media were supplemented with L-glutamine, penicillin, streptomycin, and 10% fetal bovine serum (FBS). Cells were incubated at 37 °C and 5% CO2. An assessment of the mitochondrial cell activity after applying tested compounds was carried out using the test MTT assay, recommended in the ISO 10993-5:2009 standard. As in the SRB assay, the cells were exposed to tested compounds after 24 h of initial incubation in 96-well plates. The MTT solution (1 mg/mL) was added to each well, and cells were incubated for 2 h. Finally, the supernatant was removed, and the formazan crystals were dissolved in isopropanol. After 30 min, absorbance at 570 nm in Victor2 microplate reader (PerkinElmer). Cell viability was determined as the IC50 ratio, i.e., the concentration of the compound in which the viability was reduced by half compared with the control.
(Tetrazolium dyes change colour on reduction, which living cells bring about.)

Data set [5] concerns LoVo cells. Briefly: MTT assay (mitochondrial activity), LoVo. Format: cell-based. To be noted: Homo sapiens. As to the method: as §2
Data set [6] concerns LoVo/DX cells. The data set can be described thus: MTT assay (mitochondrial activity), LoVo/DX. Format: cell-based. To be noted: Homo sapiens, LoVo/DX cells (doxorubicin-resistant). As to the method:
as §2

The subject of data set [7] is CCRF/CEM cells. Briefly: SRB assay (total protein content), CCRF/CEM. To be noted: Homo sapiens, 48 h incubation. Format: cell-based. As to the method:
as §1

The subject of data set [8] is NHDF cells. Briefly: MTT assay (mitochondrial activity), NHDF. Format: cell-based. To be noted: Homo sapiens, NHDF normal cells. As to the method:
as §2

Data set [9] concerns MCF-7 cells. The data set can be described thus: SRB assay (total protein content), MCF-7. The class given is cell-based. To be noted: Homo sapiens, MCF7, 48 h incubation. As to the method:
as §1
(Sulforhodamine B stains cellular protein and so reports cell mass.)

Data set [10] relates to CCRF/CEM cells. The data set can be described thus: Rate of apoptosis (annexin V/PI, Tali Apoptosis Kit). To be noted: 24 h incubation, tested 0.2, 0.5 and 1 μM. The class given is cell-based, human. As to the method:
Apoptosis is a process of programmed cell death. After exposure to tested compounds, the apoptosis rate was measured using Tali Apoptosis Kit (Invitrogen, Thermo Fisher Scientific, Waltham, MA, USA). In the process of apoptosis, phosphatidylserine (PS) is transferred to the outer side of the cell membrane. The assay uses the ability of fluorophore-labeled annexin V to identify apoptotic cells by binding to exposed PS. The CCRF/CEM cells were incubated in RPMI-1640 medium in 24-well plates for 24 h (37 °C, 5% CO2). Then, tested compounds were added at three different concentrations (0.2, 0.5, and 1 μM) and incubated for 24 h. Negative control was the culture of cells not exposed to apoptosis-inducing factors. After incubation with tested compounds, the cells were harvested, centrifuged, and the supernatant removed. Cells were suspended in annexin V binding buffer (ABB), and Alexa Fluor 488 annexin V conjugate was added to each sample. The cells were then incubated for 20 min in the dark at RT, centrifuged, and resuspended in ABB with propidium iodide (PI). After 5 min incubation, the stained samples were transferred to Tali Cellular Analysis Slides and analyzed using an image-based cytometer Arthur (NanoEnTek Inc., Seoul, Korea).

Where [11] appears, read: 1 h pre-incubation with 200 µM omeprazole, compound 10 µM.

Each structure is given as a SMILES string. Some results are limits rather than exact numbers.

`Cc1nccc2c(C)c3[nH]c4ccccc4c3cc12` [Olivacine, 1,5-dimethyl-6H-pyrido[4,3-b]carbazole]: the “duration of blockage of exocytosis after omeprazole” value in data set [1] (setting [11]) is “at least 3 h”. In addition, the intracellular localisation result was “in the cytoplasm and not in the lysosomes” in data set [1] (with omeprazole); “accumulation of olivacine in the lysosomes” in data set [1] (without omeprazole). Further, the 50% growth inhibitory concentration (GI50) in [2] came to 820 ± 80 nM; in data set [3] it was 1020 ± 210 nM; in [7], 810 ± 140 nM; in [9] it was 750 ± 70 nM. The IC50 in data set [4] stood at 17800 ± 7820 nM; in data set [5], 12700 ± 1080 nM; in data set [6], 26300 ± 4640 nM; in data set [8], 15300 ± 1950 nM. In [10], the “concentration at which apoptosis was induced” value was 1 µM.
For the compound `Cc1c2ccncc2c(C)c2c1[nH]c1ccccc12` [Ellipticine], the “time after which exocytosis was observed after omeprazole” value in [1] (setting [11]) was greater than 3 h. For the same compound, the concentration for 50% growth inhibition (GI50) amounted to 750 ± 220 nM in data set [2], 950 ± 250 nM in data set [3], 770 ± 170 nM in data set [7] and 1250 ± 770 nM in data set [9]. The IC50 in [4] amounted to 12900 ± 2360 nM; in data set [5], 3270 ± 830 nM; in data set [6], 15000 ± 1730 nM; in data set [8], 8980 ± 1440 nM. Besides, the “concentration at which apoptosis was induced” value in [10] turned out to be 1 µM.

In general, GI50 refers to the concentration giving 50% growth inhibition. Read a low GI50 as more potent growth inhibition. What is called IC50 is the concentration that gives 50% inhibition. A lower IC50 goes with higher potency.
